Laboratory results taken from US20230277569A1, “Compositions and Methods for Treating, Ameliorating and/or Preventing Cancer and Kits for the Same” (priority 2022, published 2023).
“Also recorded” adds a separate entry of the source. Read-outs that look alike come from different tables or passages of the source.

Columns and labels:
[1] = system: beagle dogs; test: Electrocardiography studies in beagle dogs; assay type: in vivo
Procedure: At each time point, eight-lead ECGs were continuously recorded for at least 30 sec. At least five consecutive ECG waveforms and the associated RR intervals deemed most representative were selected for quantitative analysis at each time point. The ECG interval measurements (PR, QRS, QT, QTc, RR, and heart rate) were made on a single lead. The measured waveforms at each time point were averaged and reported. The QTc interval was calculated using the Fridericia (QT/[RR]^1/3) method. The RR interval was used to derive the heart rate and in QT interval correction. Qualitative assessments included normal sinus rhythm variations, abnormal sinus rhythms, conductance or repolarization abnormalities, bradycardia, and tachycardia. Group comparisons of ECG data (PR, QRS, QT, QTc, and heart rate) were analyzed using ANOVA.

[2] = Plasma protein binding (rapid equilibrium dialysis); assay type: in vitro ADME, human; details: human, plasma, 4-h incubation, 37° C.
Procedure: (§2) Spiked plasma samples were prepared by adding 12 μL of each working solution into 1.2 mL of blank plasma to a final concentration of 2 μg/mL. Plasma protein binding incubations were performed in triplicate by adding 500 μL of PBS into each white chamber and 300 μL of spiked plasma into each red chamber of the RED device. The device was covered with a sealing tape and placed on an orbital shaker at a shaking speed of 100 rpm at 37° C. in 5% CO2. After a 4-h incubation, a 40 μL plasma sample was transferred from each red chamber to the wells of a 96-well plate containing 160 μL of PBS. A 160 μL PBS aliquot from each white chamber was transferred to the wells of the same plate containing 40 μL of blank plasma. After matching the matrix for all samples, 400 μL aliquots of stop solution were added to each well of the 96-well sample plate. […] A 100 μL aliquot of supernatant from each well was transferred to a new 96-well sample plate and further mixed with 100 μL of Milli-Q (ultrapure) water before analysis by liquid chromatography—tandem mass spectrometry (LC-MS/MS).

[3] = system: plasma proteins; test: as above; assay type: in vitro ADME, human; details: 2 μg/mL, 4-h incubation, 37° C.
Procedure: as §2

[4] = target: Human Kv4.3/KChIP2 (Homo sapiens, UniProt Q9UK17); test: Ion channel screening, Kv4.3/KChIP2; assay type: cell-based; details: n=13, read-out: inhibition of Kv4.3/KChIP2 currents
From the text: (§3) The parameters measured were the maximum inward current evoked on stepping to −20 mV from the 1st and 26th pulse. Human Kv4.3/KChIP2 currents were evoked from a holding potential of −80 mV by a series of four 500 msec pulses to 0 mV using a 1000 msec interval between pulses. The parameter measured was the amplitude of the outward current 50 msec after the onset of the 4th voltage step to 0 mV. Human Cav1.2 currents were evoked by 2 pulses to −10 mV from a holding potential of −100 mV. The parameters measured were the maximum inward currents evoked on stepping to −10 mV from the holding potential of −100 mV for the 1st and 2nd pulse. Human Kv1.5 currents were evoked by a single pulse from a holding potential of −80 mV to a potential of 0 mV for 4 sec before returning to −80 mV. The parameters measured were the maximum amplitude of outward currents evoked at the beginning of the voltage pulse and at the end of the voltage step from −80 mV to 0 mV. Human KCNQ1/minK currents were evoked by a single pulse delivered from a holding potential of −80 mV to +60 mV for 4 sec before returning to −80 mV. The parameter measured was the maximum outward current evoked on stepping to +60 mV from the holding potential of −80 mV. hERG currents were evoked by a three-pulse protocol where voltage was first stepped to +40 mV for two sec from a holding potential of −80 mV to inactivate hERG channels. […]

[5] = target: Human Kir2.1 (Homo sapiens, UniProt P63252); test: Ion channel screening, Kir2.1; assay type: cell-based; details: n=15, pulse 10, read-out: inhibition of Kir2.1 currents
From the text: (§4) The parameter measured was the maximum outward current evoked on stepping to +60 mV from the holding potential of −80 mV. hERG currents were evoked by a three-pulse protocol where voltage was first stepped to +40 mV for two sec from a holding potential of −80 mV to inactivate hERG channels. The voltage is then stepped back to −50 mV for two sec to evoke a tail current prior to returning to the holding potential for 1 sec. The parameter measured was the amplitude of the 3rd pulse tail current upon stepping back to −50 mV after the step to +40 mV. Human HCN4 currents were evoked by a single pulse from a holding potential of −30 mV to a potential of −110 mV for 4 sec prior to returning to −30 mV. The parameter measured was the maximum inward current evoked upon stepping to −110 mV from the holding potential of −30 mV. Human Kir2.1 currents were evoked from a holding potential of −20 mV by a series of 10 500 msec pulses to −120 mV using a 200 msec interval between pulses. The parameters measured were the amplitudes of the instantaneous inward currents evoked on stepping to −120 mV for the 1st pulse and the maximum inward current at the end of the 10th hyperpolarizing pulse. For all experiments, data were filtered for seal quality, seal drop, and current amplitude.

[6] = target: CYP1A2 (Homo sapiens, UniProt P05177); test: CYP inhibition in liver microsomes, CYP1A2; assay type: in vitro ADME; details: human liver microsomes 0.1 mg/mL
Procedure: (§5) After addition of prototypical CYP substrates in 250 μL, samples were incubated for 10 min (CYP1A2, CYP2B6, CYP2C9, and CYP3A4) or 20 min (CYP2C8) at 37° C. in 5% CO2. […] Samples were analyzed for metabolite formation by LC-MS/MS. The results were expressed using the peak area ratio of analyte to internal standard, based on the calibration curves.
(§6) where Range=fitted uninhibited value, s=slope factor, x=inhibitor concentration, y=% control activity.

[7] = target: CYP2C9 (Homo sapiens, UniProt P11712); test: CYP inhibition in liver microsomes, CYP2C9; assay type: in vitro ADME; details: human liver microsomes 0.1 mg/mL
Procedure: as §5, §6

[8] = target: Cav1.2 (Homo sapiens, UniProt Q13936); test: Ion channel screening, Cav1.2; assay type: cell-based; details: n=34, pulse 2, read-out: inhibition of Cav1.2 currents
From the text: as §3

[9] = target: CYP2A6 (Homo sapiens, UniProt P11509); test: CYP inhibition in liver microsomes, CYP2A6; assay type: in vitro ADME; details: human liver microsomes 0.1 mg/mL
Procedure: as §5, §6

[10] = system: colon adenocarcinoma cell lines; details: colon adenocarcinoma lines of NCI 60 screen; read-out: IC50 anticancer activity; cited from earlier work
[11] = system: tumor; details: cited from earlier work
[12] = target: KCNQ1/minK (Homo sapiens, UniProt P51787); test: Ion channel screening, KCNQ1/minK; assay type: cell-based; details: n=16, read-out: inhibition of KCNQ1/mink currents
From the text: as §3

[13] = Toxicity and toxicokinetics in rats, IV twice weekly for 29 d; assay type: in vivo, Sprague-Dawley rats; details: Sprague-Dawley, rat; for Cmax / AUC(0-t): plasma, iv, rats; for AUC(0-t): read-out: AUC0-24
Procedure: (§1) Ninety-six male and female Sprague-Dawley rats (6-7 weeks old) were received from Charles River Laboratories, (Raleigh, N.C.) and catheterized via a femoral vein prior to arrival. Animals were acclimated in individual stainless-steel cages with access to water and Certified Rodent Diet #2014C (Envigo RMS) ad libitum for 6 d prior to study initiation. Environmental controls were set to maintain a temperature range of 20 to 26° C., a relative humidity range of 30 to 70%, eight or greater air changes/h, and a 12-h light/dark cycle. Animals were infused with sterile isotonic (0.9%) saline for a minimum of 4 d (0.20 mL/h for males or 0.15 mL/h for females) during the predose phase. At initiation of dosing, animals were 8 to 9 weeks old, and body weights ranged from 283 to 341 g for males and 188 to 238 g for females. Gamitrinib formulated as indicated above was administered by IV infusion on d […], 8, 11, 15, 18, 22, 25, and 29 of the dosing phase at 1, 10, 25 mg/kg/dose and dose volume of 5 mL/kg. The vehicle control administered with the same schedule contained 2.5% DMSO, 0.125% polysorbate 80, 0.031% lecithin, 1.25% sucrose and 4.375% dextrose. Animals were checked twice daily throughout the duration of the study for mortality, abnormalities, and signs of pain or distress. Detailed observations were conducted for each animal up to two times during the predose phase and for each toxicity animal prior to dosing on d 1, 8, 15, 22, and 29 of the dosing phase and on d 1, 7, and 14 of the recovery phase. Blood samples were collected on d. 1, 4 and 29 of the dosing phase 5 min, 1 h and 24 h post-dose, maintained on chilled cryoracks and centrifuged within 1 h of collection. Tissue samples harvested from each animal were embedded in paraffin, sectioned, and slides were prepared and stained with hematoxylin and eosin.

[14] = system: Sprague-Dawley rats; test: as above; assay type: in vivo; details: for reduction in mean body weights: male rats
Procedure: as §1

[15] = target: Human HCN4 (Homo sapiens, UniProt Q9Y3Q4); test: Ion channel screening, HCN4; assay type: cell-based; details: n=16, read-out: inhibition of HCN4 currents
From the text: as §4

[16] = target: Human Kv1.5 (Homo sapiens, UniProt P22460); test: Ion channel screening, Kv1.5; assay type: cell-based; details: n=15, read-out: inhibition of Kv1.5 currents
From the text: as §3

[17] = system: NCI 60 cell lines; details: NCI 60 cell line screen; read-out: IC50 anticancer activity; cited from earlier work
[18] = target: Nav1.5 (Homo sapiens, UniProt Q14524); test: Ion channel screening, Nav1.5; assay type: cell-based; details: n=3, pulse 26, read-out: inhibition of Nav1.5 currents
From the text: as §3

[19] = 1 mg/kg/dose (NOAEL), d 29 of dosing

Chain of CYP1A2 (P05177 whole entry): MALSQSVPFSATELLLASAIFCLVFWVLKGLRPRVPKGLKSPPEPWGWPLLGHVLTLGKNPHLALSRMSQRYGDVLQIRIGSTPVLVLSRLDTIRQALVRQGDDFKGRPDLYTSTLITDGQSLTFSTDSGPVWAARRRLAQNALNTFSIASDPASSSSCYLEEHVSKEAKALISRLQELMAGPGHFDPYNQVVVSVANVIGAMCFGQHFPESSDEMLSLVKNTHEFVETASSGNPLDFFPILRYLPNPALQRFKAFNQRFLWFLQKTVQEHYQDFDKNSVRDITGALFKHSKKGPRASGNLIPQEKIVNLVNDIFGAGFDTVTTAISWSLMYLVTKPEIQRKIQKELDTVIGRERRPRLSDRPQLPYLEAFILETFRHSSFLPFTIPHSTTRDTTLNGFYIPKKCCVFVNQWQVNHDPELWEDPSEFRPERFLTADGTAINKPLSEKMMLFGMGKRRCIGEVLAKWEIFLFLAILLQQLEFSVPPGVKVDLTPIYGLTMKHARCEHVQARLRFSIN
Chain of CYP2A6 (P11509 whole entry): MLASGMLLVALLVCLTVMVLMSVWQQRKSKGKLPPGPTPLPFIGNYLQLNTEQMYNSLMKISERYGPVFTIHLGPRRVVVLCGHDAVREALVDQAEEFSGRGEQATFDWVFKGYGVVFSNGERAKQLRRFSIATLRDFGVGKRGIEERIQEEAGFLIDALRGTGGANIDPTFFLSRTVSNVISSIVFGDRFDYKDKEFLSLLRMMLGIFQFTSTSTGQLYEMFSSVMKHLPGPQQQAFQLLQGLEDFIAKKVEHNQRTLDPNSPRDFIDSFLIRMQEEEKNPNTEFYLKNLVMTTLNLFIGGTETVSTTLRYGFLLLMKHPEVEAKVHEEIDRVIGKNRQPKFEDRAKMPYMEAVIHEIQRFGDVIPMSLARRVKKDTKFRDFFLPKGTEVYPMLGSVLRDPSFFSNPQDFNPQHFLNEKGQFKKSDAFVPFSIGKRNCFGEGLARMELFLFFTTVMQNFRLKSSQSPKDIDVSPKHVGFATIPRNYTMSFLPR
Chain of CYP2C9 (P11712 whole entry): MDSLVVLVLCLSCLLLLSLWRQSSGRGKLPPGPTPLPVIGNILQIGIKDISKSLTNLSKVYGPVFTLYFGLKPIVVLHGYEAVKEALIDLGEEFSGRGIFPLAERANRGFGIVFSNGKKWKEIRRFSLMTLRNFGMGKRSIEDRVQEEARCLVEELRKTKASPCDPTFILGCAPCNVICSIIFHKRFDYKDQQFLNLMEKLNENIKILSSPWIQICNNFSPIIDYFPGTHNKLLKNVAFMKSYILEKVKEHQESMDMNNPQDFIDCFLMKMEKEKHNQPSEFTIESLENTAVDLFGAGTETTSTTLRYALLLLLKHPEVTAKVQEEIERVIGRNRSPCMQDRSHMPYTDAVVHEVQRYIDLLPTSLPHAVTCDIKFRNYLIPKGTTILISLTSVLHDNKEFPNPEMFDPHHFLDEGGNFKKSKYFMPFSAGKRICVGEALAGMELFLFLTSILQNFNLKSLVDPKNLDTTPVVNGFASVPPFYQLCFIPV
Chain of Nav1.5 (Q14524 whole entry): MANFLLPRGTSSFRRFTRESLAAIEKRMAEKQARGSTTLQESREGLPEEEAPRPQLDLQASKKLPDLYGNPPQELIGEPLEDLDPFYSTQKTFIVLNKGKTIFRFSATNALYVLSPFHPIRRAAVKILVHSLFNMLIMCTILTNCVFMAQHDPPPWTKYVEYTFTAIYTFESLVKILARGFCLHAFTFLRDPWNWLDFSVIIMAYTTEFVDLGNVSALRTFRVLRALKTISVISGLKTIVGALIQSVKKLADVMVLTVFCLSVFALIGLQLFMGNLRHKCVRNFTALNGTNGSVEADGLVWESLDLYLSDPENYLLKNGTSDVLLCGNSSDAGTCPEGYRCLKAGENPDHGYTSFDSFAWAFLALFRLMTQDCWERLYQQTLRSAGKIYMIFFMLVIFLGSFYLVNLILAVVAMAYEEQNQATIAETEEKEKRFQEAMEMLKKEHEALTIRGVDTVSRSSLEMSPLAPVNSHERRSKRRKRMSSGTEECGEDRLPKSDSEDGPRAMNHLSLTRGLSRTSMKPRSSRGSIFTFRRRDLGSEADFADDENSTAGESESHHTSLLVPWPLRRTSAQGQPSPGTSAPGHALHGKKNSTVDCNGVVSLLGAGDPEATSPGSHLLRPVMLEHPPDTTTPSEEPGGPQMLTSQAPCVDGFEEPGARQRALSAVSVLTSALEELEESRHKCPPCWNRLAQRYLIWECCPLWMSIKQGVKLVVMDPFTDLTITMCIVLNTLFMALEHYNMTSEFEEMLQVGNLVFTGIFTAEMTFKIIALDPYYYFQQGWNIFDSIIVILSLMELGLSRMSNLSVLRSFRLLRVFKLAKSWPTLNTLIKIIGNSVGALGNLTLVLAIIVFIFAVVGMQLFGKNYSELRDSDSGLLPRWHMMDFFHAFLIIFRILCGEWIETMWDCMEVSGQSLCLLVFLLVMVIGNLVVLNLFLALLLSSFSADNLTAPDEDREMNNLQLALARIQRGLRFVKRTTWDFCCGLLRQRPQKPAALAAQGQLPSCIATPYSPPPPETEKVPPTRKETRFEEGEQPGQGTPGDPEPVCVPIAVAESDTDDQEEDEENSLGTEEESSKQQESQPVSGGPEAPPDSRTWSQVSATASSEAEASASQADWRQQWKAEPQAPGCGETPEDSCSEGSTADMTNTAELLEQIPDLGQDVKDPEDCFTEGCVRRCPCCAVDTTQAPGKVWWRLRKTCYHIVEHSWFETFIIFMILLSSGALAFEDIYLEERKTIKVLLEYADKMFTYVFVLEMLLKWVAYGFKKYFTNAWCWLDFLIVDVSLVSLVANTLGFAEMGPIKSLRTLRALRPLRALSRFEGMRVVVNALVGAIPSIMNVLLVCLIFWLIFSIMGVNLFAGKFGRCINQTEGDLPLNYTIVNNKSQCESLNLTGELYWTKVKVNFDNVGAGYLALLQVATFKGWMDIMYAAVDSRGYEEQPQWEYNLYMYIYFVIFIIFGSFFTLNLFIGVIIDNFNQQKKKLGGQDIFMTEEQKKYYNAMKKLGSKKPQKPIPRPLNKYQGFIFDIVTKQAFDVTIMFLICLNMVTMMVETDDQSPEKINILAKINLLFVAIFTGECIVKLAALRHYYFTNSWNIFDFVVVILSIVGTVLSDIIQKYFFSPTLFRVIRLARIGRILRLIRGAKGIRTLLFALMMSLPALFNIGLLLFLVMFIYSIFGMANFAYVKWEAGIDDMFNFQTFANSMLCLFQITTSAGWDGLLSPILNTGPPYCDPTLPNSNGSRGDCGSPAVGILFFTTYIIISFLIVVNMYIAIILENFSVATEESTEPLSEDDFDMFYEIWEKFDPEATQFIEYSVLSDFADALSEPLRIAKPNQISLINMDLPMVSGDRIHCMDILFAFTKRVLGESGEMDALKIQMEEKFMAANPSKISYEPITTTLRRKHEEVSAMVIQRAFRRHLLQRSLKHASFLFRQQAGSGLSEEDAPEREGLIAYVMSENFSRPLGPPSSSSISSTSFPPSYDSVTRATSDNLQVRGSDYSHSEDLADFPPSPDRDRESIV
Chain of Human Kir2.1 (P63252 whole entry): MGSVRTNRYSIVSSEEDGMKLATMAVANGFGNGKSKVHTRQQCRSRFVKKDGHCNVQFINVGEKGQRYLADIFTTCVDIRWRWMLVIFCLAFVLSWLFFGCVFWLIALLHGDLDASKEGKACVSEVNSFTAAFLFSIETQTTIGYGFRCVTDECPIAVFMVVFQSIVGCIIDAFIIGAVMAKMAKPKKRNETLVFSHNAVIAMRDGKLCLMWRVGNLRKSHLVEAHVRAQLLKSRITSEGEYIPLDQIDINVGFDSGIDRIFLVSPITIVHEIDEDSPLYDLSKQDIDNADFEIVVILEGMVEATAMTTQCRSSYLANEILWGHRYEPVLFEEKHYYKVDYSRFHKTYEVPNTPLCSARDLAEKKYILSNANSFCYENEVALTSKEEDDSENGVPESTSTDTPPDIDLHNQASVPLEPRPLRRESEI
Chain of Human Kv1.5 (P22460 whole entry): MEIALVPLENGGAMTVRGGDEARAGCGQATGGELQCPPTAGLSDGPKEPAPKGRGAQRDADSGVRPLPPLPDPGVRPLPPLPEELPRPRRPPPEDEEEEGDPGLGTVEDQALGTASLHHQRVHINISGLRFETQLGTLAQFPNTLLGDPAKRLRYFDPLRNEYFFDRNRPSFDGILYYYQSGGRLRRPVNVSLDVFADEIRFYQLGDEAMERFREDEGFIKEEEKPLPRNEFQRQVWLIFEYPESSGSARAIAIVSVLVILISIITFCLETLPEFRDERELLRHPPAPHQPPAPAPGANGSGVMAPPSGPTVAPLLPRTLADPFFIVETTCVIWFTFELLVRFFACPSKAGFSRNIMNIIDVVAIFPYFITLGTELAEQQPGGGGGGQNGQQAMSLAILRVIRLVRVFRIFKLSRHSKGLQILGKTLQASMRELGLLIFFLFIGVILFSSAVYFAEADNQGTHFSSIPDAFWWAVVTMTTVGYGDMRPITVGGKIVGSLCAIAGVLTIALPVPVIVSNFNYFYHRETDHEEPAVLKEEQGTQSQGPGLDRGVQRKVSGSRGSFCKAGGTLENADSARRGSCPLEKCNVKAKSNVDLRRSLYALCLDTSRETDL

With `CO[C@H]1/C=C\C=C(/C)C(=O)NC2=CC(=O)C(NCCCCCC[P+](c3ccccc3)(c3ccccc3)c3ccccc3)=C(C[C@@H](C)C[C@H](OC)[C@H](O)[C@@H](C)/C=C(\C)[C@@H]1OC(N)=O)C2=O` [Gamitrinib, 17-Demethoxy-17-((6-(triphenylphosphonio)hexyl)amino)geldanamycin] the “ECG changes in PR interval, QRS duration, QT interval, or heart rate” value ([1]; d 32 of dosing at 1.25, 3.33 or 6.25 mg/kg/dose, d 11 of recovery at 6.25) was “No Gamitrinib-related ECG changes”, the “rhythm abnormalities or qualitative ECG changes” value ([1]; dogs) was “No other rhythm abnormalities or qualitative ECG changes were observed” and the “prolongation of QTc interval” value ([1]; female dogs 6.25 mg/kg/dose, both sexes 1.25 or 3.33 mg/kg/dose) was “No Gamitrinib-related prolongation of QTc interval”. For the same compound, the “prolongation of QTc interval” value ([1]; one out of 5 male dogs at 6.25 mg/kg/dose, d 32 of dosing) was 17 ms, the “prolongation of QTc interval” value ([1]; one out of 5 male dogs at 6.25 mg/kg/dose, d 32 of dosing, reversed in recovery) was 7% and the fraction unbound at 4 h, 2 μg/mL ([2]; read-out: average free fraction) was 0.007 ± 0.0007. For the same compound, the fraction unbound at 4 h, 2 μg/mL ([2]; read-out: bound to plasma proteins) was less than 0.01, the “bound to plasma proteins” value [3] was 99.3±0.07% and the inhibition at 10 µM [4] was 6.8 ± 2.2%. For the same compound, the inhibition at 10 µM [5] was -7.3 ± 3.4%, the IC50 [6] was 32.9 µM and the IC50 [7] was 1.1 µM. For the same compound, the inhibition at 10 µM [8] was 12.2 ± 1.5%, the IC50 [9] was 24 µM and the IC50 [10] was 0.35 to 29 µM. The “therapeutically effective dose in mice” value [11] was 10 mg/kg, the inhibition at 10 µM [12] was 22.5 ± 1.1% and the Cmax [13, 19] was 87.1 ng/mL. The AUC(0-t) [13, 19] was 174 ng·h/mL, the Cmax ([13]; 10 mg/kg/dose (STD 10), d 29) was 311 ng/mL and the AUC(0-t) ([13]; 10 mg/kg/dose (STD 10), d 29) was 1300 ng·h/mL. For the same compound, the Vd ([13]; both sexes, in vivo, rats, 1, 10 or 25 mg/kg/dose IV twice weekly, d 4 and d 29, read-out: Vss) was 12.2 to 90 L/kg, the “reduction in mean body weights” value ([14]; 10 mg/kg/dose IV twice weekly) was −5.5% and the “reduction in mean body weights” value ([14]; 25 mg/kg/dose IV twice weekly) was −5.7%. For the same compound, the “urinalysis or ophthalmic changes” value ([14]; rats) was “No effects”, the Gamitrinib-related clinical observations ([14]; rats administered 10 mg/kg/dose) was “inguinal swelling, piloerection, hypoactivity, and sensitivity to touch at the infusion site” and the “microscopic findings at the infusion site” value ([14]; rats administered 10 mg/kg/dose (both sexes)) was “mixed cell inflammation at the catheter/infusion site”. The kidney histology ([14]; rats, 25 mg/kg/dose IV, 25 mg/kg) was “slight kidney tubule degeneration/regeneration; also recorded: marked kidney tubule degeneration/regeneration; also recorded: tubular degeneration/regeneration”, the “serum urea nitrogen (UN) and creatinine concentrations” value ([14]; rats, 25 mg/kg/dose, 25 mg/kg) was “Minimally to mildly higher; also recorded: mild elevation of urea nitrogen” and the serum urea nitrogen ([14]; rats, >10 mg/kg/dose) was “mild elevation”. The “no observed adverse effect level (NOAEL)” value ([14]; rats, IV twice weekly 29 d) was 1 mg/kg/dose, the “severely toxic dose in 10% of the animals (STD 10)” value ([14]; rats, IV twice weekly 29 d) was 10 mg/kg/dose and the “Alterations in clinical chemistry parameters” value ([14]; rats, highest Gamitrinib dose level tested) was “mildly to moderately higher neutrophil and platelet (Plts) counts, minimally prolonged partial thromboplastin time (PT), lower albumin, higher globulin, and alkaline phosphatase concentrations”. The drug accumulation ([14]; rats, Cmax and AUC0-24 similar on d 4 and d 29) was “no drug accumulation after multiple doses”, the Gamitrinib-related mortality ([14]; toxicity rats, 10 mg/kg/dose) was “one male” and the Gamitrinib-related mortality ([14]; toxicity rats, 25 mg/kg/dose) was “two males and one female”. The Gamitrinib-related mortality ([14]; toxicokinetic rats, 10 mg/kg/dose) was “two toxicokinetic females”, the Gamitrinib-related mortality ([14]; toxicokinetic rats, 25 mg/kg/dose) was “one toxicokinetic female” and the inhibition at 10 µM [15] was -0.2 ± 3.7%. For the same compound, the inhibition at 10 µM [16] was 6.6 ± 1.3%, the IC50 [17] was 0.16 to 29 µM and the inhibition at 10 µM [18] was 22.3 ± 5.3%.
